In test [1] the target is T1, Human immunodeficiency virus type 1 reverse transcriptase (Human immunodeficiency virus 1, UniProt Q72547). The test can be described thus: Compound concentration that causes 50 % inhibition of HIV-1 peptide-derived reverse transcriptase (RT).
Test [2] addresses T1, Human immunodeficiency virus type 1 reverse transcriptase. The test can be described thus: Inhibitory constant was determined in an HIV-1 reverse transcriptase assay in which the [3H]dTTP concentration was varied (i.e. 40, 20, 10, 6, and 4 uM.
For test [3] the target is unchanged. In words: Compound concentration that causes 50 % inhibition of HIV-1 peptide-derived reverse transcriptase (RT) obtained from HIV-1-infected H9 cell cultures.

Structures are written as SMILES.

The compound `Cc1cn(C2CC(N=[N+]=[N-])C(COP(=O)(O)OP(=O)(O)CP(=O)(O)O)O2)c(=O)[nH]c1=O` (centres undefined) came in with an IC50 in test [1] of 6950 nM. This lies in the single-digit micromolar range.

As to `Cc1cn(C2CC(N=[N+]=[N-])C(COP(=O)(O)OP(=O)(O)C(F)(F)P(=O)(O)O)O2)c(=O)[nH]c1=O` (centres undefined), the IC50 in test [1] was found to be 620 nM. This compound yielded a Ki in test [2] of 2230 nM.

As for `Cc1cn([C@H]2C[C@H](N=[N+]=[N-])[C@@H](CO[P@](=O)(O)O[P@](=O)(O)OP(=O)(O)O)O2)c(=O)[nH]c1=O` [ZIDOVUDINE TRIPHOSPHATE], the IC50 in test [3] is 22 nM.

In general, IC50 refers to the concentration that gives 50% inhibition. Low values mean inhibition by little substance, high ones a need for much substance. Broadly, the Ki is the dissociation constant of the complex between target and ligand, obtained from inhibition or displacement. A high value points to lower affinity.

The values are drawn from ChEMBL document CHEMBL1125995, “Synthesis of a difluoromethylenephosphonate analogue of AZT 5'-triphosphate and its inhibition of HIV-1 reverse transcriptase” (Bioorg Med Chem Lett, 1991).
